The target of the test is CoaX (Rv3600c) (Mycobacterium tuberculosis, UniProt P9WPA1).
CoaX (Rv3600c), sequence (P9WPA1 whole entry, looked up): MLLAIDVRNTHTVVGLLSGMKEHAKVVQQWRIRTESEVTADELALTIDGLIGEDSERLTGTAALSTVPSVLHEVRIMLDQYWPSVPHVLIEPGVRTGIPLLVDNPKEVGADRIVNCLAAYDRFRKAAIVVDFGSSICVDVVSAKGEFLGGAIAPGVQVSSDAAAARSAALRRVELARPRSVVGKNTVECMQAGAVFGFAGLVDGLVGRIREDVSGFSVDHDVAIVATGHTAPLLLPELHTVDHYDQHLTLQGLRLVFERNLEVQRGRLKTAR

As to `Nc1ncnc2c1ncn2[C@@H]1O[C@H](COP(=O)(O)OP(=O)(O)OP(O)(O)=S)[C@@H](O)[C@H]1O` [ATPγS], the thermal shift entry is listed as “increasing concentrations of ATPγS in the presence of pantothenate had the largest effect”.

Consider `CC(C)(CO)[C@@H](O)C(=O)NCCC(=O)O` [pantothenate], for which the thermal shift result is reported as “Increasing pantothenate concentration had a subtle effect on CoaX thermostability”.

For the origin of these results see publication PMC11626117 (Proceedings of the National Academy of Sciences of the …, 2024).
